# Results from patent US6511997B1, “Aminopyrazole derivatives” (Teikoku Hormone Mfg. Co., Ltd., priority 1998, dated 2003).
row,melting point [°C],SMILES
1,135 to 141.2,"COc1cccc(CC(=O)Nc2c(-c3ccncc3)c(-c3ccc(F)cc3)nn2C)c1 [Example 63, 3-(4-Fluorophenyl)-5-(3-methoxyphenylacetylamino)-1-methyl-4-(4-pyridyl)pyrazole]"
2,172.3 to 176,"COc1ccc(CC(=O)Nc2c(-c3ccncc3)c(-c3ccc(F)cc3)nn2C)cc1 [Example 64, 3-(4-Fluorophenyl)-5-(4-methoxyphenylacetylamino)-1-methyl-4-(4-pyridyl)pyrazole]"
3,240.9 to 242.4,"Cn1nc(-c2ccc(F)cc2)c(-c2ccncc2)c1NC(=O)Cc1ccccc1[N+](=O)[O-] [Example 65, 3-(4-Fluorophenyl)-1-methyl-5-(2-nitrophenylacetylamino)-4-(4-pyridyl)pyrazole]"
4,197.6 to 200.5,"Cc1ccccc1CC(=O)Nc1c(-c2ccncc2)c(-c2ccc(F)cc2)nn1C [Example 67, 3-(4-Fluorophenyl)-1-methyl-5-(2-methylphenylacetylamino)-4-(4-pyridyl)pyrazole]"
5,242.7 to 244.5,"Cn1nc(-c2ccc(F)cc2)c(-c2ccncc2)c1NC(=O)Cc1ccccc1C(F)(F)F [Example 68, 3-(4-Fluorophenyl)-1-methyl-4-(4-pyridyl)-5-(2-trifluoromethylphenylacetylamino)pyrazole]"
6,206.8 to 209.2,"COc1ccccc1CC(=O)Nc1c(-c2ccncc2)c(-c2ccc(F)cc2)nn1C [Example 69, 3-(4-Fluorophenyl)-5-(2-methoxyphenylacetylamino)-1-methyl-4-(4-pyridyl)pyrazole]"
7,147.8 to 150.1,"Cn1nc(-c2ccc(F)cc2)c(-c2ccncc2)c1NC(=O)Cc1ccc(OCc2ccccc2)cc1 [Example 70, 5-(4-Benzyloxyphenylacetylamino)-3-(4-fluorophenyl)-1-methyl-4-(4-pyridyl)pyrazole]"
8,182.5 to 184.7,"CSc1ccc(CC(=O)Nc2c(-c3ccncc3)c(-c3ccc(F)cc3)nn2C)cc1 [Example 71, 3-(4-Fluorophenyl)-1-methyl-5-(4-methylthiophenylacetyl-amino)-4-(4-pyridyl)pyrazole]"
9,193.4 to 195.8,"Cn1nc(-c2ccc(F)cc2)c(-c2ccncc2)c1NC(=O)Cc1cccc(C(F)(F)F)c1 [Example 72, 3-(4-Fluorophenyl)-1-methyl-4-(4-pyridyl)-5-(3-trifluoromethylphenylacetylamino)pyrazole]"
10,210 to 214.9,"CC(C(=O)Nc1c(-c2ccncc2)c(-c2ccc(F)cc2)nn1C)c1ccccc1 (centres unmarked) [Example 73, 3-(4-Fluorophenyl)-1-methyl-5-(2-phenylpropionylamino)-4-(4-pyridyl)pyrazole]"
11,92.1 to 96.1,"Cn1nc(-c2ccc(F)cc2)c(-c2ccncc2)c1NC(=O)C(F)c1ccccc1 (stereo not drawn) [Example 74, 3-(4-Fluorophenyl)-5-(α-fluorophenylacetylamino)-1-methyl-4-(4-pyridyl)pyrazole]"
12,148.9 to 149.4,"Cn1nc(-c2ccc(F)cc2)c(-c2ccncc2)c1NC(=O)Cc1ccccn1 [Example 76, 3-(4-Fluorophenyl)-1-methyl-4-(4-pyridyl)-5-(2-pyridylacetylamino)pyrazole]"
13,220 to 220.9,"Cn1nc(-c2ccc(F)cc2)c(-c2ccncc2)c1NC(=O)Cc1cccnc1 [Example 77, 3-(4-Fluorophenyl)-1-methyl-4-(4-pyridyl)-5-(3-pyridylacetylamino)pyrazole]"
14,141.3 to 143.4,"Cn1nc(-c2ccc(F)cc2)c(-c2ccncc2)c1NC(=O)Cc1ccncc1 [Example 78, 3-(4-Fluorophenyl)-1-methyl-4-(4-pyridyl)-5-(4-pyridylacetylamino)pyrazole]"
15,165.1 to 168.1,"Cn1cccc1CC(=O)Nc1c(-c2ccncc2)c(-c2ccc(F)cc2)nn1C [Example 79, 3-(4-Fluorophenyl)-1-methyl-5-(1-methylpyrrol-2-ylacetylamino)-4-(4-pyridyl)pyrazole]"
16,151.9 to 154.6,"Cn1nc(-c2ccc(F)cc2)c(-c2ccncc2)c1NC(=O)Cc1ccsc1 [Example 80, 3-(4-Fluorophenyl)-1-methyl-4-(4-pyridyl)-5-(3-thienylacetylamino)pyrazole]"
17,66.9 to 68.8,"Cn1nc(-c2ccc(F)cc2)c(-c2ccncc2)c1NC(=O)Cc1c[nH]c2ccccc12 [Example 82, 3-(4-Fluorophenyl)-5-(indol-3-ylacetylamino)-1-methyl-4-(4-pyridyl)pyrazole]"
18,129.2 to 130.6,"Cn1nc(-c2ccc(F)cc2)c(-c2ccncc2)c1NC(=O)Cc1c(F)ccc([N+](=O)[O-])c1Cl [Example 83, 5-(2-chloro-6-fluoro-3-nitrophenylacetylamino)-3-(4-fluorophenyl)-1-methyl-4-(4-pyridyl)pyrazole]"
19,190 to 191.3,"C[C@H](NC(=O)OCc1ccccc1)C(=O)Nc1n[nH]c(-c2ccc(F)cc2)c1-c1ccncc1 [Example 84, 3-(N′-carbobenzoxy-L-alanylamino)-5-(4-fluorophenyl)-4-(4-pyridyl)pyrazole]"
20,231.1,"CC(C)[C@H](NC(=O)OCc1ccccc1)C(=O)Nc1n[nH]c(-c2ccc(F)cc2)c1-c1ccncc1 [Example 85, 3-(N′-carbobenzoxy-L-valylamino)-5-(4-fluorophenyl)-4-(4-pyridyl)pyrazole]"

# More lines, now with the values behind:
row,SMILES,melting point [°C]
1,"Cn1nc(-c2ccc(F)cc2)c(-c2ccncc2)c1NC(=O)Cc1c(F)cccc1F [Example 46, 5-(2,6-Difluorophenylacetylamino)-3-(4-fluorophenyl)-1-methyl-4-(4-pyridyl)pyrazole]",239.9 to 242.5
2,"Cn1nc(-c2ccc(F)cc2)c(-c2ccncc2)c1NC(=O)Cc1cc(F)cc(F)c1 [Example 48, 5-(3,5-Difluorophenylacetylamino)-3-(4-fluorophenyl)-1-methyl-4-(4-pyridyl)pyrazole]",208.5 to 210.2
3,"Cn1nc(-c2ccc(F)cc2)c(-c2ccncc2)c1NC(=O)Cc1cccc(F)c1F [Example 49, 5-(2,3-Difluorophenylacetylamno)-3-(4-fluorophenyl)-1-methyl-4-(4-pyridyl)pyrazole]",181.3 to 182.5
4,"Cc1cc(C)cc(CC(=O)Nc2c(-c3ccncc3)c(-c3ccc(F)cc3)nn2C)c1 [Example 50, 5-(3,5-Dimethylphenylacetylamino)-3-(4-fluorophenyl)-1-methyl-4-(4-pyridyl)pyrazole]",211.2 to 212.4
5,"Cc1ccc(C)c(CC(=O)Nc2c(-c3ccncc3)c(-c3ccc(F)cc3)nn2C)c1 [Example 51, 5-(2,5-Dimethylphenylacetylanino)-3-(4-fluorophenyl)-1-methyl-4-(4-pyridyl)pyrazole]",179.9 to 185.1
6,"COc1ccc(CC(=O)Nc2c(-c3ccncc3)c(-c3ccc(F)cc3)nn2C)c(OC)c1 [Example 52, 5-(2,4-Dimethoxyphenylacetylamino)-3-(4-fluorophenyl)-1-methyl-4-(4-pyridyl)pyrazole]",179.3 to 182.2
7,"COc1cccc(CC(=O)Nc2c(-c3ccncc3)c(-c3ccc(F)cc3)nn2C)c1OC [Example 53, 5-(2,3-Dimethoxyphenylacetylamino)-3-(4-fluorophenyl)-1-methyl-4-(4-pyridyl)pyrazole]",185.4 to 193.4
8,"COc1cc(CC(=O)Nc2c(-c3ccncc3)c(-c3ccc(F)cc3)nn2C)cc(OC)c1OC [Example 54, 3-(4-Fluorophenyl)-1-methyl-4-(4-pyridyl)-5-(3,4,5-trimethoxyphenylacetylamino)pyrazole]",178.1 to 180.4
9,"Cn1nc(-c2ccc(F)cc2)c(-c2ccncc2)c1NC(=O)Cc1ccccc1Cl [Example 56, 5-(2-Chlorophenylacetylamino)-3-(4-fluorophenyl)-1-methyl-4-(4-pyridyl)pyrazole]",215.9 to 217.8
10,"Cn1nc(-c2ccc(F)cc2)c(-c2ccncc2)c1NC(=O)Cc1ccccc1Br [Example 57, 5-(2-Bromophenylacetylamino)-3-(4-fluorophenyl)-1-methyl-4-(4-pyridyl)pyrazole]",223.8 to 227.6
11,"Cn1nc(-c2ccc(F)cc2)c(-c2ccncc2)c1NC(=O)Cc1cccc(Br)c1 [Example 58, 5-(3-Bromophenylacetylamino)-3-(4-fluorophenyl)-1-methyl-4-(4-pyridyl)pyrazole]",78.5 to 80.2
12,"Cn1nc(-c2ccc(F)cc2)c(-c2ccncc2)c1NC(=O)Cc1ccc(Br)cc1 [Example 59, 5-(4-Bromophenylacetylamino)-3-(4-fluorophenyl)-1-methyl-4-(4-pyridyl)pyrazole]",199.8 to 202.1
13,"Cn1nc(-c2ccc(F)cc2)c(-c2ccncc2)c1NC(=O)Cc1ccccc1F [Example 60, 3-(4-Fluorophenyl)-5-(2-fluorophenylacetylamino)-1-methyl-4-(4-pyridyl)pyrazole]",196.8 to 198.1
14,"Cn1nc(-c2ccc(F)cc2)c(-c2ccncc2)c1NC(=O)Cc1cccc(F)c1 [Example 61, 3-(4-Fluorophenyl)-5-(3-fluorophenylacetylamino)-1-methyl-4-(4-pyridyl)pyrazole]",196.9 to 199.1
15,"Cn1nc(-c2ccc(F)cc2)c(-c2ccncc2)c1NC(=O)Cc1ccc(F)cc1 [Example 62, 3-(4-Fluorophenyl)-5-(4-fluorophenylacetylamino)-1-methyl-4-(4-pyridyl)pyrazole]",217.3 to 219.7
16,"C[C@H](NC(=O)OC(C)(C)C)C(=O)Nc1n[nH]c(-c2ccc(F)cc2)c1-c1ccncc1 [Example 86, 3-(N′-Carbo-t-butoxy-L-alanylamino)-5-(4-fluorophenyl)-4-(4-pyridyl)pyrazole]",223 to 224.7
17,"CC(C)[C@H](NC(=O)OC(C)(C)C)C(=O)Nc1n[nH]c(-c2ccc(F)cc2)c1-c1ccncc1 [Example 87, 3-(N′-Carbo-t-butoxy-L-valylamino)-5-(4-fluorophenyl)-4-(4-pyridyl)pyrazole]",217.1 to 217.6
18,"CC(C)(C)OC(=O)N1CCC[C@H]1C(=O)Nc1n[nH]c(-c2ccc(F)cc2)c1-c1ccncc1 [Example 88, 3-(N′-Carbo-t-butoxy-L-prolylamino)-5-(4-fluorophenyl)-4-(4-pyridyl)pyrazole]",124.6 to 125.7
